# Key:
# human ES cell line H9 = test: Attachment and colony formation of H9 human ES cells on surface modified plates with Rho kinase inhibitors (crystal violet, image analysis); format: cell-based
# Procedure: Human ES cells of the line H9, at passage 40 were maintained in MEF conditioned media on Nunclon Delta™ plates treated with a 1:30 dilution of growth factor reduced Matrigel™, prior to study. Cells were dissociated from the surface for passage by 1 mg/ml collagenase dissociation or by manual scraping.
# These cells were then seeded onto surface modified plates 2, 3, 4 and 13 (12-well format) in the presence of increasing amounts one of the following Rho Kinase inhibitors: Y-27632 (from Sigma, St. Louis, Mo. or EMD, San Diego, Calif.), Fasudil (Sigma), or Hydroxyfasudil (Sigma), and maintained for 3 days, each day replacing the media and compound. At the end of day three, media was removed and the plates were stained with Crystal Violet (0.5% in water) to visualize colonies.
# It was attempted to determine the optimal dose of Y-27632 to promote cell binding, by treating cells with a range of plating concentrations of Y-27632 for the first day of culture. After the first day in culture cells were treated on subsequent days with a 10 μM concentration of Y-27632. It was observed that the maximal concentration to stimulate attachment and growth of ES cells was 10 μM (FIG. 12) and that this occurred on surface modified plates 2, 3, 4, 13 and CellBIND™ (Corning, Corning, N.Y.).
# The effect of treating the cells continuously with a single dose of Y-27632 on attachment and growth was also tested. The cells were dosed with 0, 1, 4, or 10 μM Y-27632 for 4 days. Some binding was observed on surface modified plates without treatment (0 μM), however the optimal concentration to stimulate attachment and growth of ES cells was 10 μM Y-27632 (Table 4) on surface modified plates 2, 3, 4, 13.
# HEK293 cells = test: HEK293 cell attachment, number of viable cells by LDH activity (Example 19); format: cell-based, human; conditions: Surface 4 and CellBIND surface, 2.0 and 5.0 μM
# Excerpt: Human embryonic kidney cells 293 (HEK293, ECACC no. 85120602) were maintained in Eagle's Minimum Essential Medium (EMEM; Lonza, Verviers, Belgium) containing 10% fetal bovine serum (FBS; Lonza). The cells were adapted to Pro293a-CDM medium (Lonza), a chemically defined, serum-free medium optimized for cultivation of adherent HEK293, by gradually and over several passages using the sequential ratios of 3:1, 1:1, 1:3, 1:7, and finally 0:1 of serum-supplemented EMEM and Pro293a-CDM medium. For maintenance and adaptation, HEK293 cells were seeded at 2.0×10^4 cells/cm^2 in 75-cm^2 flasks with Nunclon Delta™ surface (Thermo Fisher Scientific, Roskilde, Denmark) and passaged at 70-80%/confluence using Trypsin/EDTA for dissociation.
# Another 100 μl of Pro293a-CDM medium with HEK293 cells was added to the wells (4.0×10^4 cells/cm^2). […]
# The number of viable cells in the wells was then determined using a lactate dehydrogenase (LDH) activity kit from Roche, Switzerland. […] The reaction was stopped by adding 50 μl of 1.0 M HCl, and the absorbance at 490 nm was measured in a microplate reader (Genios Pro; Tecan, Austria). The number of cells was calculated using the A490 values from these samples and from standards containing LDH from a known number of cells. […]
# H9 human ES cells = test: H9 human ES cell attachment to surface Nunc4 in defined media mTeSR (Example 14); format: cell-based; conditions: 20 micromolar Y-27632
# Procedure: Passage 49 H9 human ES cells were passaged twice in the define media, mTeSR™, on Matrigel™-treated plasticware. The cells were then LIBERASE treated and plated onto the surface modified plate Nunc4 in mTeSR™ media. Cells were either plated in media with or without 20 micromolar Y-27632. Wells were also treated with various proteins for 30 minutes prior to seeding cells (no treatment, 0.1% gelatin, 2% BSA, 0.34 mg/ml rat Collagen I, 1:1000 Matrigel™, or 1:5000 Matrigel™) to determine if these proteins could promote human ES cell adhesion in defined media with or without Y-27632 (FIG. 28). […] However, when 20 micromolar Y-27632 was added to define mTeSR™ media, human ES cells adhered to surface Nunc4. Furthermore, this adherence was equivalent in untreated wells and wells treated with 0.1% gelatin, 2% BSA, and 0.34 mg/ml rat Collagen I. There was a modest increase in human ES cell attachment in wells with low concentrations of Matrigel™ (1:1000 and 1:5000 dilutions), however these concentrations of Matrigel™ were insufficient to promote adhesion in the absence of Y-27632.
smiles,measurement,setting,value
"C[C@@H](N)[C@H]1CC[C@H](C(=O)Nc2ccncc2)CC1 [Surface Y-27632, Y-27632]",attachment of ES cell colonies by day three,"human ES cell line H9; H9 on surface modified plates 2, 3, 4 and 13, crystal violet, Y-27632 at 10 μM",Best results
same,cell proliferation,human ES cell line H9; Matrigel treated plates with or without 10 μM Y-27632 (FIG. 14),grow at a similar density as untreated cells
same,optimal concentration to stimulate attachment and growth of ES cells,"human ES cell line H9; continuous 0, 1, 4 or 10 μM for 4 days, plates 2, 3, 4, 13",10 µM
same,maximal concentration to stimulate attachment and growth of ES cells,"human ES cell line H9; range of plating concentrations first day, then 10 μM, plates 2, 3, 4, 13 and CellBIND",10 µM
same,attachment of HEK293 cells,HEK293 cells; EMEM with 10% FBS,enhanced attachment
same,attachment of HEK293 cells,HEK293 cells; Pro293a-CDM medium,enhanced attachment
same,adherence of human ES cells in defined mTeSR media,H9 human ES cells,adhered

# — patent US11001802B2, “Surface of a vessel with polystyrene, nitrogen, oxygen and a static sessile contact angle for attachment and cultivation of cells” (Nunc A/S, priority 2008, dated 2021)
